{
  "source": "patent US9061006B2",
  "about": "“Compositions and methods for diagnosing and treating phenylketonuria (PKU)” (Ramot at Tel-Aviv University Ltd., priority 2011, dated 2015)",
  "type_in_all_cases": "cell-based",
  "key": {"[1]": {"assay": "MTT cell viability assay, PC12 cell line", "conditions": "rat, PC12 cells", "description": "(§1) Cell cytotoxicity experiments—CHO cells (2×10^5 cells/mL) were cultured in 96-well micro plates (100 μL/well) and incubated overnight at 37° C. 100 μL of phenylalanine was added to each well dissolved in Dulbecco's Modified Eagle Medium (DMEM) (Beit Haemek, Israel) at various concentrations. Each experiment was repeated 3 times. Following incubation for 6 hours at 37° C., cell viability was evaluated using the 3-(4,5-dimethylthiazolyl-2)-2,5-diphenyltetrazolium bromide (MTT) assay. Briefly, 20 μL of 5 mg/mL MTT dissolved in PBS was added to each well. After 4 hours incubation at 37° C., 100 μL of extraction buffer [20% SDS dissolved in a solution of 50% dimethylformamide and 50% DDW (pH 4.7)] was added to each well, and the plates were incubated again overnight at 37° C. Finally, color intensity was measured using an ELISA reader at 570 nm.\n(§2) The present inventors next examined whether, like many amyloid structures, phenylalanine assemblies have a cytotoxic effect. This was examined in a physiological range of concentration, similar to that detected in untreated PKU patients. We performed in vitro cellular viability experiments. To this end, elevated concentrations of phenylalanine ranging from 0.1 μM to 15 mM were added to […] cultured PC12 cells. […] In the presence of 1.8 mM phenylalanine, PC12 cell viability was decreased to approximately 80%. […] In the presence of 6 mM phenylalanine, CHO cell viability was decreased to 84%. Moreover, the viability of the cells in the presence of phenylalanine at concentration of 12 mM was lower than 40% (FIG. 2A). The present assay is performed at much shorter time scales than those of disease progression and this may account for the slightly elevated concentrations than those typically found at PKU patients. It is also possible that such high concentrations of phenylalanine occur pathologically in PKU patients due to transient local high concentration in the brain. […] The present inventors further assessed the influence of the phenylalanine fibrils on the CHO cells using scanning electron microscope."}, "[2]": {"assay": "MTT cell viability assay, CHO cell line", "conditions": "Chinese hamster, CHO cells", "description": "as §1"}, "[3]": {"assay": "Immuno precipitation and cell cytotoxicity experiments (MTT)", "conditions": "Chinese hamster, prior to IP, CHO cells", "description": "as §1\nImmuno precipitation and cell cytotoxicity experiments—Phenylalanine solution at concentration of 7.5, 1.87, 0.46, 0.11 were either incubated with CHO cell or immuno-precipitate and then the solutions, without the fibrils, were incubated with CHO cell according to cell cytotoxicity experiments detailed above. Samples were immuno-precipitated with anti-phenylalanine fibrils antibodies (1:10) over night at 4° C. (previously purified on protein A column, in PBS+2% BSA)."}, "[4]": {"test_system": "CHO cells", "assay": "Scanning electron microscopy imaging of CHO cells", "conditions": "incubation with phenylalanine fibrils 6 hour, SEM", "description": "Scanning electron microscopy imaging of CHO cells—CHO cell were cultured on glass cover slips located in 24-well micro plates, then incubated with various concentration of phenylalanine fibrils for 6 hour at 37° C., as described in the cell cytotoxicity experiments section. The cell were fixated on the glass cover slip with 2.5% glutaraldehyde, then dehydrated and coated with gold. Scanning electron microscopy images were made using a JSM JEOL 840A SEM operating at 5 kV."}, "[5]": {"test_system": "PC12 cells", "assay": "MTT cell viability assay, PC12 cell line", "conditions": "negative control amino acid, increasing amount", "description": "as §1, §2"}},
  "data": [
    {"smiles": "N[C@@H](Cc1ccccc1)C(=O)O", "note": "[phenylalanine]", "values": [
      {"measurement": "viability at 1.8 mM", "setting": "[1]; 1.8 mM phenylalanine", "result": "~80", "unit": "%"},
      {"measurement": "viability at 7.5 mM", "setting": "[1]; 7.5 mM phenylalanine", "result": "~65", "unit": "%"},
      {"measurement": "viability at 6 h, 6 mM", "setting": "[2]; 6 mM phenylalanine", "result": 84, "unit": "%"},
      {"measurement": "viability at 6 h, 12 mM", "setting": "[2]; 12 mM phenylalanine", "result": "< 40", "unit": "%"},
      {"measurement": "viability at 6 h, 1.87 mM", "setting": "[3]; 1.87 mM phenylalanine assemblies", "result": 56, "unit": "%"},
      {"measurement": "viability at 6 h, 7.5 mM", "setting": "[3]; 7.5 mM phenylalanine assemblies", "result": 44, "unit": "%"},
      {"measurement": "CHO cell morphology", "setting": "[4]", "result": "smaller and rounded"},
      {"measurement": "CHO cell density", "setting": "[4]; compared to untreated cells", "result": "very low density"}
    ]},
    {"smiles": "C[C@H](N)C(=O)O", "note": "[Alanine, reference compound]", "values": [
      {"measurement": "toxic effect (cytotoxicity)", "setting": "[5]", "result": "did not demonstrate a toxic effect"}
    ]}
  ]
}
